According to PubChem BioAssay (NCI):
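Five concentrations, 48 hours, 96-well plates. Here, GI50 denotes the concentration required for 50% inhibition of growth. The concentration for full growth arrest is given as TGI.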

Key:
Assay in all cases: DTP human tumour cell line panel, 48 h
786-0 renal = tested on: 786-0 renal
A498 renal = tested on: A498 renal
A549 NSCLC = tested on: A549 NSCLC
ACHN renal = tested on: ACHN renal
BT-549 breast = tested on: BT-549 breast
CAKI-1 renal = tested on: CAKI-1 renal
CCRF-CEM leukemia = tested on: CCRF-CEM leukemia
COLO 205 colon = tested on: COLO 205 colon
DU-145 prostate = tested on: DU-145 prostate
EKVX NSCLC = tested on: EKVX NSCLC
HCC-2998 colon = tested on: HCC-2998 colon
HCT-116 colon = tested on: HCT-116 colon
HCT-15 colon = tested on: HCT-15 colon
HOP-62 NSCLC = tested on: HOP-62 NSCLC
HOP-92 NSCLC = tested on: HOP-92 NSCLC
HS 578T breast = tested on: HS 578T breast
HT29 colon = tested on: HT29 colon
IGROV1 ovarian = tested on: IGROV1 ovarian
K-562 leukemia = tested on: K-562 leukemia
KM12 colon = tested on: KM12 colon
LOX IMVI melanoma = tested on: LOX IMVI melanoma
M14 melanoma = tested on: M14 melanoma
MALME-3M melanoma = tested on: MALME-3M melanoma
MCF7 breast = tested on: MCF7 breast
MDA-MB-231 breast = tested on: MDA-MB-231 breast
MDA-MB-435 = tested on: MDA-MB-435
MDA-MB-468 breast = tested on: MDA-MB-468 breast
MOLT-4 leukemia = tested on: MOLT-4 leukemia

Q: Which results are given for COc1ccc(C(=O)/C=C/c2cccc(Br)c2)cc1S(N)(=O)=O?
A: GI50 (786-0 renal): 1.63 µM; TGI (786-0 renal): 3.33 µM; GI50 (A498 renal): 13.8 µM; TGI (A498 renal): 27 µM; GI50 (A549 NSCLC): 2.82 µM; TGI (A549 NSCLC): 10.2 µM; GI50 (ACHN renal): 1.67 µM; TGI (ACHN renal): 3.11 µM; GI50 (BT-549 breast): 1.51 µM; TGI (BT-549 breast): 3.46 µM; GI50 (CAKI-1 renal): 2.28 µM; TGI (CAKI-1 renal): 7.89 µM; GI50 (CCRF-CEM leukemia): 2.54 µM; TGI (CCRF-CEM leukemia): 6.12 µM; GI50 (COLO 205 colon): 1.92 µM; TGI (COLO 205 colon): 3.51 µM; GI50 (DU-145 prostate): 3.56 µM; TGI (DU-145 prostate): 12.8 µM; GI50 (EKVX NSCLC): 5.24 µM; TGI (EKVX NSCLC): 18.5 µM; GI50 (HCC-2998 colon): 1.45 µM; TGI (HCC-2998 colon): 2.99 µM; GI50 (HCT-116 colon): 1.04 µM; TGI (HCT-116 colon): 2.21 µM; GI50 (HCT-15 colon): 1.01 µM; TGI (HCT-15 colon): 2.39 µM; GI50 (HOP-62 NSCLC): 2.05 µM; TGI (HOP-62 NSCLC): 5.74 µM; GI50 (HOP-92 NSCLC): 1.8 µM; TGI (HOP-92 NSCLC): 11.8 µM; GI50 (HS 578T breast): 16 µM; TGI (HS 578T breast): 68.6 µM; GI50 (HT29 colon): 1.61 µM; TGI (HT29 colon): 3.28 µM; GI50 (IGROV1 ovarian): 2.24 µM; TGI (IGROV1 ovarian): 8.6 µM; GI50 (K-562 leukemia): 1.35 µM; TGI (K-562 leukemia): 4.41 µM; GI50 (KM12 colon): 1.33 µM; TGI (KM12 colon): 3.29 µM; GI50 (LOX IMVI melanoma): 1.24 µM; TGI (LOX IMVI melanoma): 2.48 µM; GI50 (M14 melanoma): 1.81 µM; TGI (M14 melanoma): 4.64 µM; GI50 (MALME-3M melanoma): 3.19 µM; TGI (MALME-3M melanoma): 14 µM; GI50 (MCF7 breast): 1.58 µM; TGI (MCF7 breast): 5.22 µM; GI50 (MDA-MB-231 breast): 2.45 µM; TGI (MDA-MB-231 breast): 6.75 µM; GI50 (MDA-MB-435): 2.06 µM; TGI (MDA-MB-435): 7.14 µM; GI50 (MDA-MB-468 breast): 1.39 µM; TGI (MDA-MB-468 breast): 2.87 µM; GI50 (MOLT-4 leukemia): 2.17 µM; TGI (MOLT-4 leukemia): 4.71 µM
